Tests used:
Format in all cases: physicochemical
[1] = humidity stress experiment (stability of the amorphous compound in relative humidity chambers, XRD pattern analysed); details: 5-7 days
Protocol: (§1) The following experiments were performed to evaluate the stability of the amorphous compound under various solvent vapours and controlled humidity conditions.
In addition, a humidity stress experiment was performed by placing about 25 mg of the amorphous compound of Example 1 in individual vials, storing the vials in an unsealed state in various relative humidity chambers (23% RH, 59% RH, 7% RH, 98% RH, 40° C./75% RH) for 5-7 days, and analyzing the XRD pattern.
(§2) The vapour stress and humidity stress experimental methods are methods used as methods for generating stable solvates or hydrates because, when a substance is exposed to vapours, a solid is plasticized, and molecular mobility is […]. However, for the amorphous compound of Example 1, the amorphous compound was maintained under various conditions according to the above experimental methods. Thus, it was confirmed that the amorphous compound was stable under the corresponding conditions.

[2] = as above; details: 75% RH stress, 5-7 days
[3] = vapour stress experiment (stability of the amorphous compound under solvent vapours, XRD pattern analysed); details: 5-7 days; for Result / XRD: vapour stress
Protocol: as §1
A vapour stress experiment was performed by placing about 25 mg of the amorphous compound of Example 1 into an unsealed vial, placing the vial in a large sealed container containing 1 mL of the selected solvent, and after 5-7 days, analyzing the XRD pattern of the sample.
as §2

CC(C)C(=O)N([C@H]1C[C@@H](C(=O)N2CCOCC2)N(C(=O)[C@@H]2CN(C(C)(C)C)C[C@H]2c2ccc(Cl)cc2)C1)[C@H]1CC[C@@H](C)CC1 [Example 1, N-((3S,5S)-1-((3S,4R)-1-(tert-butyl)-4-(4-chlorophenyl)pyrrolidine-3-carbonyl)-5-(morpholine-4-carbonyl)pyrrolidin-3-yl)-N-((1s,4R)-4-methylcyclohexyl)isobutyramide]
stable: stability of the amorphous compound under humidity stress conditions ([1]; controlled humidity conditions) | stability of the amorphous compound under vapour stress conditions ([3]; various solvent vapours)
Solid: Result ([1]; 23% RH stress) | Result ([1]; 40° C./75% RH stress) | Result ([1]; 59% RH stress) | Result ([1]; 75% RH stress) | Result ([1]; 98% RH stress) | Result ([3]; 2-Me-THF) | Result ([3]; ACS) | Result ([3]; Acetone) | Result ([3]; Benzyl alcohol) | Result ([3]; Chlorobenzene) | Result ([3]; Chloroform) | Result ([3]; DCM) | Result ([3]; DME) | Result ([3]; DMSO) | Result ([3]; Ethanol) | Result ([3]; Formamide) | Result ([3]; HFIPA) | Result ([3]; Heptane) | Result ([3]; IPA) | Result ([3]; MEK) | Result ([3]; MeOH) | Result ([3]; NMP) | Result ([3]; Nitromethane) | Result ([3]; Pyridine) | Result ([3]; THE) | Result ([3]; Water)
Amorphous: XRD ([1]; 23% RH stress) | XRD ([1]; 40° C./75% RH stress) | XRD ([1]; 59% RH stress) | XRD ([1]; 98% RH stress) | XRD [2] | XRD ([3]; 2-Me-THF) | XRD ([3]; ACS) | XRD ([3]; Acetone) | XRD ([3]; Benzyl alcohol) | XRD ([3]; Chlorobenzene) | XRD ([3]; Chloroform) | XRD ([3]; DCM) | XRD ([3]; DME) | XRD ([3]; DMSO) | XRD ([3]; Ethanol) | XRD ([3]; Formamide) | XRD ([3]; HFIPA) | XRD ([3]; Heptane) | XRD ([3]; IPA) | XRD ([3]; MEK) | XRD ([3]; MeOH) | XRD ([3]; NMP) | XRD ([3]; Nitromethane) | XRD ([3]; Pyridine) | XRD ([3]; THE) | XRD ([3]; Water)

From patent US20240059652A1, “AMORPHOUS MELANOCORTIN RECEPTOR AGONIST AND METHOD FOR PREPARING SAME” (LG CHEM, LTD., priority 2020, published 2024)
